According to ChEMBL document CHEMBL4219106, “Discovery and optimization of tetrahydropyrido[4,3-d]pyrimidine derivatives as novel ATX and EGFR dual inhibitors” (Bioorg Med Chem, 2018):
Activity calls are given as the source filed them. No cut-off for these calls is given here.

Tests used:
[1] = system: RAW264.7; test: Anti-inflammatory activity in mouse RAW264.7 cells assessed as inhibition of LPS-induced NO production by measuring NO level at 10 ug/ml preincubated for 1 hr followed by LPS-stimulation measured after 24 hrs by Griess assay; assay type: functional
[2] = Antifibrotic activity against Wistar rat cardiac fibroblasts assessed as inhibition of cell proliferation at 20 uM after 12 hrs by MTT assay relative to control; assay type: functional
[3] = system: RAW264.7; test: Anti-inflammatory activity in mouse RAW264.7 cells assessed as inhibition of LPS-induced TNFalpha mRNA level preincubated for 2 hrs followed by LPS-stimulation measured after 8 hrs by RT-PCR method; assay type: functional, cell-based
[4] = system: RAW264.7; test: Anti-inflammatory activity in mouse RAW264.7 cells assessed as inhibition of LPS-induced TNFalpha mRNA level at 2.5 ug/ml preincubated for 2 hrs followed by LPS-stimulation measured after 8 hrs by RT-PCR method relative to control; assay type: functional
[5] = system: NCI-H1975; test: Cytotoxicity against human NCI-H1975 cells assessed as reduction in cell viability after 72 hrs by MTT assay; assay type: functional, cell-based; details: NCI-H1975, 72 h
[6] = system: RAW264.7; test: Anti-inflammatory activity in mouse RAW264.7 cells assessed as inhibition of LPS-induced TGFbeta mRNA level at 2.5 ug/ml preincubated for 2 hrs followed by LPS-stimulation measured after 8 hrs by RT-PCR method relative to control; assay type: functional
[7] = system: A549; test: Cytotoxicity against human A549 cells assessed as reduction in cell viability after 72 hrs by MTT assay; assay type: functional, cell-based; details: A549, 72 h
[8] = system: RAW264.7; test: Anti-inflammatory activity in mouse RAW264.7 cells assessed as inhibition of LPS-induced TNFalpha mRNA level at 5 ug/ml preincubated for 2 hrs followed by LPS-stimulation measured after 8 hrs by RT-PCR method relative to control; assay type: functional
[9] = system: RAW264.7; test: Anti-inflammatory activity in mouse RAW264.7 cells assessed as inhibition of LPS-induced TNFalpha mRNA level at 10 ug/ml preincubated for 2 hrs followed by LPS-stimulation measured after 8 hrs by RT-PCR method relative to control; assay type: functional
[10] = system: RAW264.7; test: Anti-inflammatory activity in mouse RAW264.7 cells assessed as inhibition of LPS-induced TGFbeta mRNA level at 10 ug/ml preincubated for 2 hrs followed by LPS-stimulation measured after 8 hrs by RT-PCR method relative to control; assay type: functional
[11] = Antifibrotic activity against TGF-induced Wistar rat cardiac fibroblasts assessed as inhibition of cell proliferation after 12 hrs by MTT assay; assay type: functional
[12] = molecular target: Epidermal growth factor receptor (Homo sapiens, UniProt P00533); test: Inhibition of EGFR (unknown origin) using peptide substrate after 60 mins by HTRF assay
[13] = system: RAW264.7; test: Anti-inflammatory activity in mouse RAW264.7 cells assessed as inhibition of LPS-induced TGFbeta mRNA level at 5 ug/ml preincubated for 2 hrs followed by LPS-stimulation measured after 8 hrs by RT-PCR method relative to control; assay type: functional
[14] = system: RAW264.7; test: Anti-inflammatory activity in mouse RAW264.7 cells assessed as inhibition of LPS-induced TGFbeta mRNA level preincubated for 2 hrs followed by LPS-stimulation measured after 8 hrs by RT-PCR method; assay type: functional, cell-based
[15] = molecular target: Vascular endothelial growth factor receptor 2 (Homo sapiens, UniProt P35968); test: Inhibition of VEGFR2 (unknown origin) using peptide substrate after 60 mins by HTRF assay
[16] = Cytotoxicity against human SGC cells assessed as reduction in cell viability after 72 hrs by MTT assay; assay type: functional, cell-based
[17] = molecular target: Epidermal growth factor receptor (Homo sapiens, UniProt P00533, L858R/T790M); test: Inhibition of EGFR T790M/L858R double mutant (unknown origin) using peptide substrate after 60 mins by HTRF assay
[18] = system: MKN-45; test: Cytotoxicity against human MKN45 cells assessed as reduction in cell viability after 72 hrs by MTT assay; assay type: functional, cell-based; details: MKN-45, 72 h
[19] = Inhibition of glycosylated human ATX using substrate FS-3 preincubated for 45 mins followed by substrate addition measured after 45 mins by fluorescence assay
[20] = system: RAW264.7; test: Anti-inflammatory activity in mouse RAW264.7 cells assessed as inhibition of LPS-induced NO production by measuring NO level at 5 ug/ml preincubated for 1 hr followed by LPS-stimulation measured after 24 hrs by Griess assay; assay type: functional
[21] = system: RAW264.7; test: Anti-inflammatory activity in mouse RAW264.7 cells assessed as inhibition of LPS-induced NO production by measuring NO level at 2.5 ug/ml preincubated for 1 hr followed by LPS-stimulation measured after 24 hrs by Griess assay; assay type: functional
[22] = system: A549; test: Potency index, ratio of gefitinib IC50 to compound IC50 for human A549 cells; assay type: functional
[23] = Potency index, ratio of gefitinib IC50 to compound IC50 for human SGC cells; assay type: functional
[24] = system: MKN-45; test: Potency index, ratio of gefitinib IC50 to compound IC50 for human MKN45 cells; assay type: functional
[25] = Inhibition of ATX (unknown origin); set-up: species or system Homo sapiens

Chain of Epidermal growth factor receptor (Homo sapiens, UniProt P00533) (P00533 whole entry): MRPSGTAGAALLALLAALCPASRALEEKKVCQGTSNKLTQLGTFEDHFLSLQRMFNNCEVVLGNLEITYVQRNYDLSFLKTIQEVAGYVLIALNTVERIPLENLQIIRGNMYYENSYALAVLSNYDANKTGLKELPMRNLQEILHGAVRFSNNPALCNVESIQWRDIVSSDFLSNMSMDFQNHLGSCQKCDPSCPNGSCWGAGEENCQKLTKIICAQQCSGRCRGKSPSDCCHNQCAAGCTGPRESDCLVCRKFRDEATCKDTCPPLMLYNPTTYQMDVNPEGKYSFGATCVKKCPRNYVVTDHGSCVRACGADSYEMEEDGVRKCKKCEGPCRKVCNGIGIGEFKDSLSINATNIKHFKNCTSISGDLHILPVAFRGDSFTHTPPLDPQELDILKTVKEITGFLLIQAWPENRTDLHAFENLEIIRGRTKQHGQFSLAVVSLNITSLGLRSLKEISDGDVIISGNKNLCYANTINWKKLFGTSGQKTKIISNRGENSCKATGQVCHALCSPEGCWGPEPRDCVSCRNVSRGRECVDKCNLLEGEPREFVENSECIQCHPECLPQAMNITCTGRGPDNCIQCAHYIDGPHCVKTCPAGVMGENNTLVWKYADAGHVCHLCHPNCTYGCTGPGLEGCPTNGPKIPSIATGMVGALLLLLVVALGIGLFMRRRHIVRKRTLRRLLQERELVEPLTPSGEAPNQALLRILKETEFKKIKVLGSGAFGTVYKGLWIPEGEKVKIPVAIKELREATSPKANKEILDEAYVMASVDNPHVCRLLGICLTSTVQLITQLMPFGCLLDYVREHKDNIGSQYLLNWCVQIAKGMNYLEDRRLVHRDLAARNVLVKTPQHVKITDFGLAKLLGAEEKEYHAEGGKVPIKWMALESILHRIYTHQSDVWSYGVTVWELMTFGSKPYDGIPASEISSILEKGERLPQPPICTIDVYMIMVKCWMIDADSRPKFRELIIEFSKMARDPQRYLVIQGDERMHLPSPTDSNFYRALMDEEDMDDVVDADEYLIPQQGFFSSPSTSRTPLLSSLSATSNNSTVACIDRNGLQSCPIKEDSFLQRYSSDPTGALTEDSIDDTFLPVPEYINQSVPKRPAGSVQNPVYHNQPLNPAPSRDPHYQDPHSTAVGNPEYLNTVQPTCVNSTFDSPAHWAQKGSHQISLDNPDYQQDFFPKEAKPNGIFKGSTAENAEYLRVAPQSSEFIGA
Chain of Vascular endothelial growth factor receptor 2 (P35968 whole entry): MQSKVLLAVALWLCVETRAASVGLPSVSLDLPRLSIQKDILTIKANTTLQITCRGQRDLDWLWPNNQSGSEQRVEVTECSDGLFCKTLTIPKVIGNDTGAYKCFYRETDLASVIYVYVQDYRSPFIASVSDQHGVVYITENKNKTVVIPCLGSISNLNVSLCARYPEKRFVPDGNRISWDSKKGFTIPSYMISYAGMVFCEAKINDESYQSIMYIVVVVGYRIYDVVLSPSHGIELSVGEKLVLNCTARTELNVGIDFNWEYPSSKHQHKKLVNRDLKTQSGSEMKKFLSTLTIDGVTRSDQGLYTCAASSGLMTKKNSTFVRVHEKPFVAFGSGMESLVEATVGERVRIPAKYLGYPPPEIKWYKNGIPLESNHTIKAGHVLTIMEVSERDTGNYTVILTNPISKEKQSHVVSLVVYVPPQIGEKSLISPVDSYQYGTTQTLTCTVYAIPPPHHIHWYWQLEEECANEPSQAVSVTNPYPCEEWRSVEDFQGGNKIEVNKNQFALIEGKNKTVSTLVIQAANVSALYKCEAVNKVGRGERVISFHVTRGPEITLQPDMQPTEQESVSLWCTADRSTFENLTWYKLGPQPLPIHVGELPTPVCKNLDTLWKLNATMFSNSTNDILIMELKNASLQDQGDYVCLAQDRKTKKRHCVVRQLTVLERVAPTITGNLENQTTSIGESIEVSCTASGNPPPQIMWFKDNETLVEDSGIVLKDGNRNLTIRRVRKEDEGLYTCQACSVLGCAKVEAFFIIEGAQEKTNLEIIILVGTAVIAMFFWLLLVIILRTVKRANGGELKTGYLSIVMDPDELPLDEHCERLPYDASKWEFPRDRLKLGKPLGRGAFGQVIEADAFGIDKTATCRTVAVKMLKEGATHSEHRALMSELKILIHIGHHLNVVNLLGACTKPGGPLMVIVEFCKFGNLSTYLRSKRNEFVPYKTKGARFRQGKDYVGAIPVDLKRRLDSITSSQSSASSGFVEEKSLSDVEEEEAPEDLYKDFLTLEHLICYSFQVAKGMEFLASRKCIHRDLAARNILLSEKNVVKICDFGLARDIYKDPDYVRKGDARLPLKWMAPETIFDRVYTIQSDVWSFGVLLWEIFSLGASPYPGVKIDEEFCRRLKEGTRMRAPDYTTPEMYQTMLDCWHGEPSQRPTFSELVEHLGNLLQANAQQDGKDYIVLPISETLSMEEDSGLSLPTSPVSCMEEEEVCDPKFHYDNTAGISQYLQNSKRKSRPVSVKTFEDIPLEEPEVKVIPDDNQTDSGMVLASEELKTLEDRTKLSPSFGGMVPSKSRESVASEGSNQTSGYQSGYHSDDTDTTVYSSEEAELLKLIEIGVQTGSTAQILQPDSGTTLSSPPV
Chain of Epidermal growth factor receptor (Homo sapiens, UniProt P00533, L858R/T790M) (P00533 25-1210 T790M/L858R limits assumed): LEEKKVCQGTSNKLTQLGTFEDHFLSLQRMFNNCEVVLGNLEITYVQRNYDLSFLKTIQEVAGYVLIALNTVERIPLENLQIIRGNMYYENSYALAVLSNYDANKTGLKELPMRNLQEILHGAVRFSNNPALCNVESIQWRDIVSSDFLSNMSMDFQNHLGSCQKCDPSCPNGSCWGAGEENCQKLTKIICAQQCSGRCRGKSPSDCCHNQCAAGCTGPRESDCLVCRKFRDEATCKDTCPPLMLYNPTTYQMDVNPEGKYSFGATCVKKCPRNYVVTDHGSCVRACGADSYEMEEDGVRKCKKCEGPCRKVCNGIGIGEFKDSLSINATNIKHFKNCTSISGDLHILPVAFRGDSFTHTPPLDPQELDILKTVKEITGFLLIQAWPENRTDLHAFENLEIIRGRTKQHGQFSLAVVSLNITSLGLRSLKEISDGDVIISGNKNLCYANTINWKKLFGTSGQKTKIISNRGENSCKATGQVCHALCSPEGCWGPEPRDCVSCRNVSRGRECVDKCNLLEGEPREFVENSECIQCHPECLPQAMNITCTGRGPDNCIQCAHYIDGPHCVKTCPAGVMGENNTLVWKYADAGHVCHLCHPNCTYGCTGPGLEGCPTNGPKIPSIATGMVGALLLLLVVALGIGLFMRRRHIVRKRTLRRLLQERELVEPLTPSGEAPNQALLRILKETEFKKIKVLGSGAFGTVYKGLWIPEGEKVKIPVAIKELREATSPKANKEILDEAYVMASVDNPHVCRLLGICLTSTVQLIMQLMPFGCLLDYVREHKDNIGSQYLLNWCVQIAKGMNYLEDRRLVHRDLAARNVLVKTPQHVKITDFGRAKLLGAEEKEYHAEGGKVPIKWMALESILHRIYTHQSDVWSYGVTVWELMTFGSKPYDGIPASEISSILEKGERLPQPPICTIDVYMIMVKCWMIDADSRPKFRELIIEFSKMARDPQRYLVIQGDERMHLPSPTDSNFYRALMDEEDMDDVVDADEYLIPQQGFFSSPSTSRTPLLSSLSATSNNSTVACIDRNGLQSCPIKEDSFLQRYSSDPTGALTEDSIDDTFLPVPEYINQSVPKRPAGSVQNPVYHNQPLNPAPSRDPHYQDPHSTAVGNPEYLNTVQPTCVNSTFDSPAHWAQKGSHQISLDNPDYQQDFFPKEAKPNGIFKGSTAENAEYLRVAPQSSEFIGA

SMILES | inhibition at 20 µM [2] [%] | IC50 [5] [µM] | IC50 [7] [µM] | IC50 [16] [µM] | IC50 [18] [µM] | other results
CSc1ccc(/C=N/NC(=O)N2CCc3ncnc(Nc4ccc(F)c(Cl)c4)c3C2)cc1 | 65 to 83 | – | – | – | – | Activity [1]: <1.9 µM
Cc1ccc(/C=N/NC(=O)N2CCc3ncnc(Nc4cccc(C(F)(F)F)c4)c3C2)cc1 | 77 | 21.3 | 4.96 | 2.91 | 3.43 | inhibition [3]: Dose-dependent effect; inhibition at 2.5 µg/mL [4]: 37%; inhibition at 2.5 µg/mL [6]: 46%; inhibition at 5 µg/mL [8]: 54%; inhibition at 10 µg/mL [9]: 72%; inhibition at 10 µg/mL [10]: 86%; IC50 [11]: 1.49 µM; IC50 [12]: 0.0242 µM; inhibition at 5 µg/mL [13]: 65%; inhibition [14]: Dose-dependent effect; IC50 [15]: 0.152 µM; Activity [1]: 1.05 µM; IC50 [17]: 3.22 µM; IC50 [19]: 0.0291 µM
O=C(N/N=C/c1ccccc1)N1CCc2ncnc(Nc3cccc(Br)c3)c2C1 | – | 37.8 | 22.7 | 16.4 | 22.4 | Activity [1]: <1.9 µM
O=C(N/N=C/c1cccnc1)N1CCc2ncnc(Nc3cccc(Br)c3)c2C1 | – | > 200 | 72.1 | > 200 | > 200 | –
O=C(N/N=C/c1cccc([N+](=O)[O-])c1)N1CCc2ncnc(Nc3ccc(F)c(Cl)c3)c2C1 | – | 86.9 | 43.1 | 34.8 | > 200 | –
N#Cc1ccc(/C=N/NC(=O)N2CCc3ncnc(Nc4ccc(F)c(Cl)c4)c3C2)cc1 | – | 67.5 | 42.6 | 35.8 | 52.3 | –
O=C(N/N=C/c1cccc(Br)c1)N1CCc2ncnc(Nc3cccc(Br)c3)c2C1 | – | – | – | – | – | inhibition [20]: Active; inhibition [21]: Active; inhibition [1]: Active
O=C(N/N=C/c1ccc(F)cc1)N1CCc2ncnc(Nc3ccc(F)c(Cl)c3)c2C1 | – | 64.5 | 11.4 | 16.9 | 10.8 | –
O=C(N/N=C/c1ccc(C(F)(F)F)cc1)N1CCc2ncnc(Nc3cccc(C(F)(F)F)c3)c2C1 | 65 to 83 | – | – | – | – | –
O=C(N/N=C/c1ccc(Br)cc1)N1CCc2ncnc(Nc3cccc(Br)c3)c2C1 | 65 to 83 | 51 | 6.56 | 6.93 | 23.6 | inhibition [20]: Active; inhibition [21]: Active; inhibition [1]: Active
O=C(N/N=C/c1ccc(F)cc1)N1CCc2ncnc(Nc3cccc(Br)c3)c2C1 | – | 37.6 | 2.27 | 1.79 | 2.49 | inhibition [20]: Active; inhibition [21]: Active; inhibition [1]: Active
O=C(N/N=C/c1ccccc1)N1CCc2ncnc(Nc3ccc(F)c(Cl)c3)c2C1 | – | 28.8 | 31.5 | 7.47 | 22.9 | –
O=C(N/N=C/c1ccc(C(F)(F)F)cc1)N1CCc2ncnc(Nc3ccc(F)c(Cl)c3)c2C1 | 65 to 83 | 36.8 | 37.8 | 36.4 | 21.4 | Activity [20]: 2.1 µM; Activity [21]: 3.87 µM; Activity [1]: 0.79 µM
O=C(N/N=C/c1ccc(F)cc1)N1CCc2ncnc(Nc3cccc(C(F)(F)F)c3)c2C1 | – | 55.6 | 6.37 | 4.23 | 4 | –
O=C(N/N=C/c1ccc(Br)cc1)N1CCc2ncnc(Nc3ccc(F)c(Cl)c3)c2C1 | 65 to 83 | > 200 | 14.1 | 13.5 | 12.1 | –
Cc1ccc(/C=N/NC(=O)N2CCc3ncnc(Nc4ccc(F)c(Cl)c4)c3C2)cc1C | – | 6.83 | 15.6 | 11.5 | 18.1 | –
O=C(N/N=C/c1cc(F)c(F)cc1Cl)N1CCc2ncnc(Nc3ccc(F)c(Cl)c3)c2C1 | 65 to 83 | 46.1 | 7.55 | 10.4 | 7.33 | IC50 [11]: 1.91 µM; IC50 [12]: 0.0423 µM; IC50 [15]: 0.17 µM; IC50 [19]: 0.0384 µM
O=C(N/N=C/c1ccc(Br)cc1)N1CCc2ncnc(Nc3cccc(C(F)(F)F)c3)c2C1 | 65 to 83 | 61.4 | 11.5 | 16.8 | 11.4 | –
O=C(N/N=C/c1ccc(F)cc1Cl)N1CCc2ncnc(Nc3cccc(Br)c3)c2C1 | – | 15.7 | 1.61 | 0.99 | 1.71 | Ratio IC50 [22]: 7.6; Ratio IC50 [23]: 3.3; inhibition [20]: Active; inhibition [21]: Active; IC50 [12]: 0.018 µM; Ratio IC50 [24]: 6.1; IC50 [15]: 0.133 µM; inhibition [1]: Active; IC50 [17]: 0.94 µM
O=C(N/N=C/c1cccs1)N1CCc2ncnc(Nc3cccc(Br)c3)c2C1 | 65 to 83 | 122 | 50.2 | > 200 | > 200 | Activity [1]: <1.9 µM
O=C(N/N=C/c1cccs1)N1CCc2ncnc(Nc3cccc(C(F)(F)F)c3)c2C1 | 65 to 83 | 169 | 42.4 | 24.6 | 36.4 | Activity [1]: <1.9 µM
O=C(CCc1nc2ccccc2s1)N1CCc2ncnc(Cc3ccc(F)cc3)c2C1 | 68 | – | – | – | – | IC50 [25]: 0.00259 µM; IC50 [19]: 0.0104 µM
O=C(N/N=C/c1cccs1)N1CCc2ncnc(Nc3ccc(F)c(Cl)c3)c2C1 | 83 | 33 | > 200 | 96.3 | 57.3 | IC50 [12]: 0.0625 µM; IC50 [15]: 0.237 µM; Activity [1]: <1.9 µM
O=C(N/N=C/c1ccco1)N1CCc2ncnc(Nc3cccc(Br)c3)c2C1 | – | > 200 | 47.1 | > 200 | 65.7 | –
